In US20240300937A1, “Substituted 6-(Pyrimidin-4-yl)Quinoline Compounds as Cyclin Dependent Kinase Inhibitors” (BeiGene, Ltd., priority 2022, published 2024):
pIC50: −log10 of the molar value.

Assays:
[1] = target: CDK6/Cyclin D3 (Homo sapiens (Human), UniProt Q00534); assay: CDK6/Cyclin D3 kinase TR-FRET inhibition assay; assay type: biochemical; conditions: 1 mM ATP, Rb (Ser780)-biotin substrate, read-out: CDK6D3 IC50
Description: (§1) Compounds disclosed herein were tested for inhibition of CDK4/Cyclin D1 or CDK6/Cyclin D3 kinase in an assay based on the time-resolved fluorescence-resonance energy transfer (TR-FRET) methodology. The assay was carried out in 384-well low volume black plates in a reaction mixture containing CDK4/Cyclin D1 or CDK6/Cyclin D3, 1 mM ATP, 0.15 μM Rb (Ser780)-biotin substrate and 0-10 μM compound in buffer containing 50 mM HEPES pH7.0, 0.02% NaN3, 0.01% BSA, 0.1 mM Orthovanadate, 50 mM MgCl2, 1 mM DTT and 0.005% Tween-20. The kinase was incubated with compound for 60 minutes at room temperature and the reaction was initiated by the addition of ATP and Rb (Ser780)-biotin substrate. After reaction at room temperature for 120 minutes, an equal volume of stop/detection solution was added according to the manufacture's instruction (Cisbio Bioassays). The stop/detection solution contained Streptavidin-XL665 and Anti-pRb (Ser780) mAb-Eu Cryptate in Detection buffer (Cisbio Bioassays). Plates were incubated at room temperature for 60 minutes, and the TR-FRET signals (ex337 nm, em665 nm/620 nm) were recorded on a PHERAstar FSX plate reader (BMG Labtech). The inhibition percentage of CDK4/Cyclin D1 or CDK6/Cyclin D3 kinase activity in presence of increasing concentrations of compounds was calculated based on the ratio of fluorescence at 665 nm to that at 620 nm. The IC50 for each compound was derived from fitting the data to the four-parameter logistic equation by Dotmatics.

[2] = target: CDK4/Cyclin D1 (Homo sapiens (Human), UniProt P11802); assay: CDK4/Cyclin D1 kinase TR-FRET inhibition assay; assay type: biochemical; conditions: 1 mM ATP, Rb (Ser780)-biotin substrate, read-out: CDK4D1 IC50
Chain of CDK4/Cyclin D1 (P11802 whole entry): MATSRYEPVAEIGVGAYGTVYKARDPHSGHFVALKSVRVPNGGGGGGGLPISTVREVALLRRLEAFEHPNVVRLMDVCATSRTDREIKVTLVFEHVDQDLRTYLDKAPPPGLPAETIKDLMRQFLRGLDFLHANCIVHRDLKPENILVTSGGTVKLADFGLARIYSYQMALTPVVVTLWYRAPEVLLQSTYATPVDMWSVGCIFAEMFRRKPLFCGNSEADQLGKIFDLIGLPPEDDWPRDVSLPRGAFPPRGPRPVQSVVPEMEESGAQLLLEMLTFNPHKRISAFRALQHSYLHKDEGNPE
Chain of CDK4/Cyclin D1 (P24385 whole entry partner): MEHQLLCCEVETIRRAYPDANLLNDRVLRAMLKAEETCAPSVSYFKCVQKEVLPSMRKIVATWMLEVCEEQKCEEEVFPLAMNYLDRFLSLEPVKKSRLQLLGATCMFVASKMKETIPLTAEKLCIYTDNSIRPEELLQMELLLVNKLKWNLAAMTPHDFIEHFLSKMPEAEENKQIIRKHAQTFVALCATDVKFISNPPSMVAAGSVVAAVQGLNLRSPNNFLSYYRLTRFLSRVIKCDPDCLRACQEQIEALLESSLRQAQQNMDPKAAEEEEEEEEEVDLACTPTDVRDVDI
Description: as §1

Chain of CDK6/Cyclin D3 (Q00534 whole entry): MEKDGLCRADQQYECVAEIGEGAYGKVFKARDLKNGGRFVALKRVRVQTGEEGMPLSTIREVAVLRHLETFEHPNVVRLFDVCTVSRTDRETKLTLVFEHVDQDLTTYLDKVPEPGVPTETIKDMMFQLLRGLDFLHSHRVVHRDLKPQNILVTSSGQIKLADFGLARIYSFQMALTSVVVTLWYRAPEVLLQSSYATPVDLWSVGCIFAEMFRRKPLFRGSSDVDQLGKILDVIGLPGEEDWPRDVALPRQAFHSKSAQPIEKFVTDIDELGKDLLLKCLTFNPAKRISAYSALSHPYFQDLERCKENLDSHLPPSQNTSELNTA
Chain of CDK6/Cyclin D3 (P30281 whole entry partner): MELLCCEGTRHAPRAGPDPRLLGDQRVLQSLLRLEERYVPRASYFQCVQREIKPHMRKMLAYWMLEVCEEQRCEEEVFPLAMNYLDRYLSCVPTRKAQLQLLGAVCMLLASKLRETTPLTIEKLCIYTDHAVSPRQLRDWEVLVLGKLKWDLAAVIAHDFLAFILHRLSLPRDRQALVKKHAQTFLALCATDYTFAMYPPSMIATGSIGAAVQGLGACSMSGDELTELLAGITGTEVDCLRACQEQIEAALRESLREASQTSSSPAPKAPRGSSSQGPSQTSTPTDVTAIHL

Row | pIC50 [1] | pIC50 [2] | Compound
1 | 6.17 | 7.17 | CNC(=O)c1cnc2ccc(-c3nc(N[C@@H]4CCOC[C@H]4O)ncc3F)cc2c1C(C)C [Example 1, 6-(5-fluoro-2-(((3S,4R)-3-hydroxytetrahydro-2H-pyran-4-yl)amino)pyrimidin-4-yl)-4-isopropyl-N-methyl quinoline-3-carboxamide]
2 | 7.16 | 8.34 | CC(C)c1c(C(C)(C)O)cnc2ccc(-c3nc(N[C@@H]4CCOC[C@H]4O)ncc3F)cc12 [Example 2]
3 | 7.13 | 8.31 | CC(C)c1c(CO)cnc2ccc(-c3nc(N[C@@H]4CCOC[C@H]4O)ncc3F)cc12 [Example 3, (3S,4R)-4-((5-fluoro-4-(3-(hydroxymethyl)-4-isopropylquinolin-6-yl)pyrimidin-2-yl)amino)tetrahydro-2H-pyran-3-ol]
4 | 6.38 | 7.42 | CC(C)c1ccnc2ccc(-c3nc(N[C@@H]4CCOC[C@H]4O)ncc3Cl)cc12 [Example 4, (3S,4R)-4-((5-chloro-4-(4-isopropylquinolin-6-yl)pyrimidin-2-yl)amino)tetrahydro-2H-pyran-3-ol]
5 | 6.09 | 6.97 | Cc1cc(C(C)C)c2cc(-c3nc(N[C@@H]4CCOC[C@H]4O)ncc3Cl)ccc2n1 [Example 5, (3S,4R)-4-((5-chloro-4-(4-isopropyl-2-methylquinolin-6-yl)pyrimidin-2-yl)amino)tetrahydro-2H-pyran-3-ol]
6 | 6.80 | 8.03 | Cc1cnc2ccc(-c3nc(N[C@@H]4CCOC[C@H]4O)ncc3F)cc2c1C(C)C [Example 6, (3S,4R)-4-((5-fluoro-4-(4-isopropyl-3-methylquinolin-6-yl)pyrimidin-2-yl)amino)tetrahydro-2H-pyran-3-ol]
7 | 6.28 | 7.36 | Cc1nc2ccc(-c3nc(N[C@@H]4CCOC[C@H]4O)ncc3F)cc2c(C(C)C)c1C [Example 7, (3S,4R)-4-((5-fluoro-4-(4-isopropyl-2,3-dimethylquinolin-6-yl)pyrimidin-2-yl)amino)tetrahydro-2H-pyran-3-ol]
8 | 6.60 | 7.85 | CC(C)c1ccnc2ccc(-c3nc(N[C@@H]4CCOC[C@H]4O)ncc3F)cc12 [Example 8, (3S,4R)-4-((5-fluoro-4-(4-isopropylquinolin-6-yl)pyrimidin-2-yl)amino)tetrahydro-2H-pyran-3-ol]
9 | 7.03 | 7.68 | Cc1c(-c2nc(N[C@@H]3CCOC[C@H]3O)ncc2F)ccc2nccc(C(C)C)c12 [Example 9, (3S,4R)-4-((5-fluoro-4-(4-isopropyl-5-methylquinolin-6-yl)pyrimidin-2-yl)amino)tetrahydro-2H-pyran-3-ol]
10 | 6.03 | 7.11 | Cc1cc(C(C)C)c2cc(-c3nc(N[C@@H]4CCOC[C@H]4O)ncc3F)ccc2n1 [Example 10, (3S,4R)-4-((5-fluoro-4-(4-isopropyl-2-methylquinolin-6-yl)pyrimidin-2-yl)amino)tetrahydro-2H-pyran-3-ol]
11 | 6.25 | 7.68 | CC(C)c1c(CN(C)C)cnc2ccc(-c3nc(N[C@@H]4CCOC[C@H]4O)ncc3F)cc12 [Example 11, (3S,4R)-4-((4-(3-((dimethylamino)methyl)-4-isopropylquinolin-6-yl)-5-fluoropyrimidin-2-yl)amino)tetrahydro-2H-pyran-3-ol]
12 | 6.49 | 7.72 | CC(C)c1c(CN2CCCC2=O)cnc2ccc(-c3nc(N[C@@H]4CCOC[C@H]4O)ncc3F)cc12 [Example 12, 1-((6-(5-fluoro-2-(((3S,4R)-3-hydroxytetrahydro-2H-pyran-4-yl)amino)pyrimidin-4-yl)-4-isopropylquinolin-3-yl)methyl)pyrrolidin-2-one]
13 | 6.33 | 7.80 | CC(C)c1c(CN2CCOCC2=O)cnc2ccc(-c3nc(N[C@@H]4CCOC[C@H]4O)ncc3F)cc12 [Example 13, 4-((6-(5-fluoro-2-(((3S,4R)-3-hydroxytetrahydro-2H-pyran-4-yl)amino)pyrimidin-4-yl)-4-isopropylquinolin-3-yl)methyl)morpholin-3-one]
14 | 6.25 | 7.37 | Cc1nc2ccc(-c3nc(N[C@@H]4CCOC[C@H]4O)ncc3F)cc2c(C(C)C)c1CO [Example 15, (3S,4R)-4-((5-fluoro-4-(3-(hydroxymethyl)-4-isopropyl-2-methylquinolin-6-yl)pyrimidin-2-yl)amino)tetrahydro-2H-pyran-3-ol]
15 | 6.22 | 7.82 | CC(C)c1c(CN2CC(O)C2)cnc2ccc(-c3nc(N[C@@H]4CCOC[C@H]4O)ncc3F)cc12 [Example 16, 1-((6-(5-fluoro-2-(((3S,4R)-3-hydroxytetrahydro-2H-pyran-4-yl)amino)pyrimidin-4-yl)-4-isopropylquinolin-3-yl)methyl)azetidin-3-ol]
16 | 6.73 | 7.96 | CC(C)c1c(CN2CCOCC2)cnc2ccc(-c3nc(N[C@@H]4CCOC[C@H]4O)ncc3F)cc12 [Example 17, (3S,4R)-4-((5-fluoro-4-(4-isopropyl-3-(morpholinomethyl)quinolin-6-yl)pyrimidin-2-yl)amino)tetrahydro-2H-pyran-3-ol]
17 | 6.22 | 7.59 | CC(C)c1c(CN2CC[C@H](F)C2)cnc2ccc(-c3nc(N[C@@H]4CCOC[C@H]4O)ncc3F)cc12 [Example 18, (3S,4R)-4-((5-fluoro-4-(3-(((S)-3-fluoropyrrolidin-1-yl)methyl)-4-isopropylquinolin-6-yl)pyrimidin-2-yl)amino)tetrahydro-2H-pyran-3-ol]
18 | 5.91 | 7.70 | CC(C)c1c(CNC2CCC2)cnc2ccc(-c3nc(N[C@@H]4CCOC[C@H]4O)ncc3F)cc12 [Example 19, (3S,4R)-4-((4-(3-((cyclobutylamino)methyl)-4-isopropylquinolin-6-yl)-5-fluoropyrimidin-2-yl)amino)tetrahydro-2H-pyran-3-ol]
19 | 6.22 | 7.92 | CC(C)c1c(CNC2CC(F)(F)C2)cnc2ccc(-c3nc(N[C@@H]4CCOC[C@H]4O)ncc3F)cc12 [Example 20, (3S,4R)-4-((4-(3-(((3,3-difluorocyclobutyl)amino)methyl)-4-isopropylquinolin-6-yl)-5-fluoropyrimidin-2-yl)amino)tetrahydro-2H-pyran-3-ol]
20 | 6.31 | 7.82 | CC(C)c1c(CNC2CCOC2)cnc2ccc(-c3nc(N[C@@H]4CCOC[C@H]4O)ncc3F)cc12 (stereo partly drawn) [Example 21, (3S,4R)-4-((5-fluoro-4-(4-isopropyl-3-(((tetrahydrofuran-3-yl)amino)methyl)quinolin-6-yl)pyrimidin-2-yl)amino)tetrahydro-2H-pyran-3-ol]
21 | 6.40 | 8.15 | CC(C)NCc1cnc2ccc(-c3nc(N[C@@H]4CCOC[C@H]4O)ncc3F)cc2c1C(C)C [Example 22, (3S,4R)-4-((5-fluoro-4-(4-isopropyl-3-((isopropylamino)methyl)quinolin-6-yl)pyrimidin-2-yl)amino)tetrahydro-2H-pyran-3-ol]
22 | 6.44 | 7.72 | CC(C)c1c(CN2CC[C@@H](F)C2)cnc2ccc(-c3nc(N[C@@H]4CCOC[C@H]4O)ncc3F)cc12 [Example 23, (3S,4R)-4-((5-fluoro-4-(3-(((R)-3-fluoropyrrolidin-1-yl)methyl)-4-isopropylquinolin-6-yl)pyrimidin-2-yl)amino)tetrahydro-2H-pyran-3-ol]
23 | 6.21 | 7.70 | CC(C)c1c(CNC[C@H]2CCCO2)cnc2ccc(-c3nc(N[C@@H]4CCOC[C@H]4O)ncc3F)cc12 [Example 24, (3S,4R)-4-((5-fluoro-4-(4-isopropyl-3-(((((R)-tetrahydrofuran-2-yl)methyl)amino)methyl)quinolin-6-yl)pyrimidin-2-yl)amino)tetrahydro-2H-pyran-3-ol]
24 | 6.65 | 8.08 | CC(C)c1c(CNC2CC2)cnc2ccc(-c3nc(N[C@@H]4CCOC[C@H]4O)ncc3F)cc12 [Example 25, (3S,4R)-4-((4-(3-((cyclopropylamino)methyl)-4-isopropylquinolin-6-yl)-5-fluoropyrimidin-2-yl)amino)tetrahydro-2H-pyran-3-ol]
25 | 6.00 | 7.48 | CC(C)c1c(CNC2CCCC2)cnc2ccc(-c3nc(N[C@@H]4CCOC[C@H]4O)ncc3F)cc12 [Example 26, (3S,4R)-4-((4-(3-((cyclopentylamino)methyl)-4-isopropylquinolin-6-yl)-5-fluoropyrimidin-2-yl)amino)tetrahydro-2H-pyran-3-ol]

Row | Compound | pIC50 [1] | pIC50 [2]
26 | CC(C)c1c(CN2CC3CC(C2)O3)cnc2ccc(-c3nc(N[C@@H]4CCOC[C@H]4O)ncc3F)cc12 [Example 14, (3S,4R)-4-((4-(3-((6-oxa-3-azabicyclo[3.1.1]heptan-3-yl)methyl)-4-isopropylquinolin-6-yl)-5-fluoropyrimidin-2-yl)amino)tetrahydro-2H-pyran-3-ol] | 6.64 | 7.92
